Data: patent publication US5605892A, “Compositions of arginine amide with cyclodextrin of caffeine, and methods of use” (priority 1993, dated 1997)

How the values were obtained:
[1] = Solubility test of argatroban in water with various compounds (shaken with excess argatroban, HPLC); format: physicochemical; conditions: for solubility thermodynamic at 12 h: phosphate buffer, pH 7, aqueous buffer, phosphate buffer pH 7.0, 25° C.
Method: The solubility of argatroban in water was determined by the use of various compounds.
An excess amount of argatroban was added to a phosphate buffer (pH 7.0) containing a compound at a concentration of 1.0 W/V % and the mixture was shaken at 25° C. for 12 hours. The amount of the argatroban dissolved in this solution was measured by HPLC to determine the solubility.

[2] = Stability test: aqueous solutions in glass ampoules preserved in shade or under light exposure; format: physicochemical; conditions: argatroban with caffeine
From the text: Aqueous solutions (pH 7) containing 0.05 W/V % or 0.1 W/V % argatroban and having the formulations 1-6 shown in Table 2 below were filled in glass ampoules and preserved in shade or under light exposure of […]. Each solution was examined for pH, appearance, insoluble matter and residual content of argatroban.

[3] = system: fibrin formation in anterior sac; assay: Inhibition of fibrin formation in anterior sac after argon laser irradiation of iris, slit lamp evaluation; format: in vivo, colored house rabbits
From the text: Reference Example--Argatroban concentration and inhibition of fibrin formation in anterior sac
Animal used: 18 colored house rabbits weighing 2 kg and showing no abnormality in the eyes by visual observation
Drug used: test drug (a solution of argatroban at a concentration of 0.1 W/V % or 0.2 W/V % prepared according to the eye drop of Example 1)
: control (physiological saline)
Test: Fibrin was formed in anterior sac by irradiation at four sites in iris with argon laser (AC-3500, Nidek). The irradiation was conducted at a spot size of 100 μm, time 0.2 sec and output 1 watt. The fibrin in anterior sac was evaluated according to the evaluation criteria given below for the visual observation with time with a slit lamp after the irradiation up to 3 hours thereafter.
The test drug argatroban was administered 7 times by installation of 50 μl of the drug to one of the eyes every 10 minutes beginning from 30 minutes before the laser irradiation to 30 minutes after the irradiation, and physiological saline was administered to the other eye.
Slit lamp observation: The presence of fibrin at the 4 sites irradiated with laser was graded (0 or 1). When the fibrin amount was great, the grade was doubled. The fibrin in pupil region was graded in five stages of from 0 to 4 points. The full mark was; irradiation site: 4 points×2+pupil region: 4 points=12 points.

[4] = Solubility of argatroban in water (background statement); format: physicochemical; conditions: 25° C., pH range 7.2-7.8
Method: (§1) Taking one of the aforementioned arginine amides, (2R,4R)4-methyl-1-[N^2 -((RS)-3-methyl-1,2,3,4-tetrahydro-8-quinolinesulfonyl)-L-arginyl]-2-piperidinecarboxylic acid monohydrate (generally called argatroban) as an example, it is used at a concentration of 1 mg/ml or above as an eye drop or entoptic perfusate for the above-mentioned purpose.

[5] = Stability of aqueous solution of argatroban in a brown bottle (background statement); format: physicochemical
Method: as §1

[6] = Eye irritation examination; format: in vivo, house rabbits
From the text: Eye irritation caused by the respective, aforementioned solutions of α-cyclodextrin, β-cyclodextrin, γ-cyclodextrin and caffeine was examined using house rabbits.

fibrin formation = conditions: administration for a few weeks after the operation, cited from earlier work
[7] = solutions of Example 1, compound at 1.0 W/V %

SMILES: CC1CNc2c(cccc2S(=O)(=O)N[C@@H](CCCNC(=N)N)C(=O)N2CC[C@@H](C)C[C@@H]2C(=O)O)C1.O (mixture of isomers) [argatroban, (2R,4R)4-methyl-1-[N^2-((RS)-3-methyl-1,2,3,4-tetrahydro-8-quinolinesulfonyl)-L-arginyl]-2-piperidinecarboxylic acid monohydrate]
- solubility thermodynamic at 12 h ([1]; argatroban with caffeine 1.0 W/V %): 2000 µg/mL
- solubility thermodynamic at 12 h ([1]; argatroban with α-cyclodextrin 1.0 W/V %): 1340 µg/mL
- solubility thermodynamic at 12 h ([1]; argatroban with β-cyclodextrin 1.0 W/V %): 2590 µg/mL
- solubility thermodynamic at 12 h ([1]; argatroban with γ-cyclodextrin 1.0 W/V %): 1320 µg/mL
- solubility thermodynamic at 12 h ([1]; argatroban, no compound added): 930 µg/mL
- solubility of argatroban relative to that obtained when no compound was added ([1]; with caffeine 1.0 W/V %): about twice
- improvement in solubility ([1]; with α-, β-, γ-cyclodextrin and caffeine): superior improvement in solubility
- solubility of argatroban relative to that obtained when no compound was added ([1]; with β-cyclodextrin 1.0 W/V %): about thrice
- stability against light [2]: improved by caffeine
- percent inhibition of fibrin formation ([3]; 0.1 W/V % argatroban, 50 μl instilled 7 times every 10 minutes): about 50%
- inhibition of fibrin formation at every measurement point ([3]; 0.1 W/V % argatroban, up to 3 hours after laser irradiation): significantly inhibited
- inhibition of fibrin formation ([3]; 0.2 W/V % argatroban, 50 μl instilled 7 times every 10 minutes): completely inhibited
- solubility [4]: ~900 µg/mL
- preservation stability of aqueous solution [5]: can be preserved stably in a brown bottle

SMILES: Cn1c(=O)c2c(ncn2C)n(C)c1=O [caffeine]
- Eye irritation [6, 7]: no specific problems, thus showing no harmful effect on the eye tissue

SMILES: COc1ccc2c(c1)c(CC(=O)O)c(C)n2C(=O)c1ccc(Cl)cc1 [indomethacin]
- effect after entoptic operation (fibrin formation): has not shown dependable effects
- adverse effects after entoptic operation (fibrin formation; though not often): delay in healing of wounds or disorders in cornea

SMILES: OC[C@H]1O[C@@H]2O[C@H]3[C@H](O)[C@@H](O)[C@@H](O[C@H]4[C@H](O)[C@@H](O)[C@@H](O[C@H]5[C@H](O)[C@@H](O)[C@@H](O[C@H]6[C@H](O)[C@@H](O)[C@@H](O[C@H]7[C@H](O)[C@@H](O)[C@@H](O[C@H]1[C@H](O)[C@H]2O)O[C@@H]7CO)O[C@@H]6CO)O[C@@H]5CO)O[C@@H]4CO)O[C@@H]3CO [α-cyclodextrin]
- Eye irritation ([6]; rabbit, in vivo): no specific problems, thus showing no harmful effect on the eye tissue

SMILES: OC[C@H]1O[C@@H]2O[C@H]3[C@H](O)[C@@H](O)[C@@H](O[C@H]4[C@H](O)[C@@H](O)[C@@H](O[C@H]5[C@H](O)[C@@H](O)[C@@H](O[C@H]6[C@H](O)[C@@H](O)[C@@H](O[C@H]7[C@H](O)[C@@H](O)[C@@H](O[C@H]8[C@H](O)[C@@H](O)[C@@H](O[C@H]1[C@H](O)[C@H]2O)O[C@@H]8CO)O[C@@H]7CO)O[C@@H]6CO)O[C@@H]5CO)O[C@@H]4CO)O[C@@H]3CO [β-cyclodextrin]
- Eye irritation ([6]; rabbit, in vivo): no specific problems, thus showing no harmful effect on the eye tissue

SMILES: OC[C@H]1O[C@@H]2O[C@H]3[C@H](O)[C@@H](O)[C@@H](O[C@H]4[C@H](O)[C@@H](O)[C@@H](O[C@H]5[C@H](O)[C@@H](O)[C@@H](O[C@H]6[C@H](O)[C@@H](O)[C@@H](O[C@H]7[C@H](O)[C@@H](O)[C@@H](O[C@H]8[C@H](O)[C@@H](O)[C@@H](O[C@H]9[C@H](O)[C@@H](O)[C@@H](O[C@H]1[C@H](O)[C@H]2O)O[C@@H]9CO)O[C@@H]8CO)O[C@@H]7CO)O[C@@H]6CO)O[C@@H]5CO)O[C@@H]4CO)O[C@@H]3CO [γ-cyclodextrin]
- Eye irritation [6, 7]: no specific problems, thus showing no harmful effect on the eye tissue
